# Measured values from patent publication US8231916B2, “Use of a rice protein hydrolysate as pigmenting active principle” (Laboratoires Expanscience, priority 2006, dated 2012).
# Test system: human cutaneous fibroblasts
# Experiment: Intracellular glutathione (GSH) in dermal fibroblasts irradiated with UVA
# Format: cell-based
# Conditions: 5 mM, 15 J/cm^2 UVA
# Description: Dermal fibroblasts were inoculated in 60 mm petri dishes. The cells were pre-treated for 18 hours with 5 mM rice peptides or N-acetyl-cysteine (NAC=reference antioxidant molecule) and then irradiated at a dose of 15 J/cm^2 UVA. After irradiation, the fibroblasts were incubated for an additional 3 h at 37° C.
# At the end of the treatment, two series of samples were collected in order to evaluate: • a. Total quantity of proteins according to the Lowry method. • b. The ratio of intracellular glutathione by assay (commercial kit).
smiles,measurement,setting,value
"CC(=O)N[C@@H](CS)C(=O)O [NAC, N-acetyl-cysteine]",GSH (μmol/g proteins),,28.209 μmol/g proteins
same,"GSH, % increase compared to irradiated control cells",,29%
same,GSH,18 hours pre-treatment,21.10 µM
